The source of these data is PMC7589190, “Targeted Amino Acid Substitutions in a Trichoderma Peptaibol Confer Activity against Fungal Plant Pathogens and Protect Host Tissues from Botrytis cinerea Infection” (International Journal of Molecular Sciences, 2020).

Marks after values point to notes of the source that are not given here. Square brackets hold non-standard residues; d marks the D form. Peptide text beside a SMILES is read from it. * marks the point of attachment. Leu(ol) = CC(C)C[C@H](N)CO; Octanoyl = CCCCCCCC(=O)*; Api = NC1(C(=O)O)CCNCC1; Aib = CC(C)(N)C(=O)O Where only a bound is given, the exact number is not on record here.

Broadly, the MIC is the lowest concentration that inhibits growth of the organism.

The subject of one series is P. expansum. As to conditions: 15 µM, 96 h, absorbance at 450 nm.
Series [1] has as its system B. cinerea. Description: Protection of grapevine leaves from B. cinerea infection. As to conditions: grapevine leaves cv. Glera, 50 µM, 7 dpi, vs water control, three experiments. It is filed as in vivo, Botrytis cinerea.
The subject of series [2] is B. cinerea. Type of series: cell-based, Botrytis cinerea. Conditions: 15 µM, 96 h, absorbance at 450 nm.
Series [3] relates to B. cinerea. Description: Resazurin vital dye growth assay in microtiter wells. Type of series: cell-based, Botrytis cinerea. Details: key to Antifungal Activity: –, no activity. As to conditions: for Growth Delay / fungal growth / activity against B. cinerea (in words): peptide 15 µM; for Growth Delay: PDB pH 6.9, 5 × 10^5 spores mL^−1, resazurin, 25 °C dark, vs untreated control, repeated three times; for fungal growth / activity against B. cinerea (in words): resazurin dye; for Antifungal Activity: summary of performance of Lys-containing analogs against B. cinerea.

Series [4] relates to B. cinerea. Briefly: Protection of common bean leaves from B. cinerea infection. As to conditions: for reduction of infected (symptomatic) leaf area: common bean leaves (Phaseolus vulgaris, Borlotto var. Teggia), peptide sprayed at 50 µM.
Experimental: Leaves of common bean (Phaseolus vulgaris, Borlotto var. Teggia) were detached from 12 days-old plants grown in organic soil into a climatic chamber with a 14 h photoperiod and 22/20 °C day/night temperature.
Treatments were performed by spraying the peptides at different concentrations on leaves and berries. Water spraying was performed as a negative control.
Leaves were arranged on moist towels in plastic trays and inoculated with a suspension of 2.5 × 10^6 mL^−1 conidia of B. cinerea in potato dextrose broth (PDB). Ten microliters of the conidia suspension were dropped on two or three points apart on the leaf surface of common bean and grapevine leaves, respectively.
Inoculated leaves and berries were incubated in the dark at 25 °C in plastic bags to maintain humidity.
Seven days post-inoculation (dpi), the size of the symptomatic leaf area was measured from pictures taken with a Panasonic Lumix DMC-FZ2000 by using the graphic software “Fiji ImageJ” (GNU General Public License).
The experiment was repeated three times with leaves and four times with berries. Each treatment was performed with seven leaves of common bean and three leaves of the grapevine.
Data obtained in the infection experiments performed on common bean leaves were statistically analyzed by applying the one-way Anova Bonferroni–Holm test. The statistical analysis was performed within the groups of peptides tested at the same time compared to their respective control.
In series [5] the test system is B. cinerea. Briefly: Protection of grape berries from B. cinerea infection. It is filed as in vivo, Botrytis cinerea. As to conditions: 50 µM, vs control.
The next series concerns B. sorokiniana. It is filed as cell-based, Bipolaris sorokiniana. As to conditions: 15 µM, 96 h, absorbance at 450 nm.
Another series has as its system B. cinerea conidia. Description: Cell viability assay of conidia (Evan's blue staining, plating on PDA). Type of series: cell-based, Botrytis cinerea. Conditions: 15 µM.
A further series deals with F. graminearum. Conditions: for MIC: 96 h, pH 6.9.
The test system of series [6] is pronase E (a mixture of different proteases). Conditions: after 27 h, HPLC.
The subject of another series is trypsin. As to conditions: HPLC.
Where [7] appears, read: monitored every 12 h for seven days.

Regarding `CCCCCCCC(=O)NC(C)(C)C(=O)NCC(=O)N[C@@H](CC(C)C)C(=O)NC(C)(C)C(=O)N[C@@H](CCCCN)C(=O)N[C@@H](CCCCN)C(=O)N[C@@H](CC(C)C)C(=O)NC(C)(C)C(=O)NCC(=O)N[C@H](C(=O)N[C@H](CO)CC(C)C)[C@@H](C)CC` [Peptide 4], the “growth inhibition at maximum concentration tested” value (from here on “growth inhibition”) is recorded as “completely inhibited the growth” in the series on P. expansum, “completely inhibited the growth” with B. cinerea [2], “strong growth inhibition effect” with B. sorokiniana and “completely inhibited the growth” with F. graminearum. In the series with B. cinerea [1], the “reduction of infected leaf area” value is “about 70%”. Besides, the “Growth Delay” value in the series on B. cinerea [3] (monitored for seven days) is listed as >7 days. Moreover, the “fungal growth / activity against B. cinerea (in words)” value (from here on “fungal growth / activity”) with B. cinerea [3] (setting [7]) is on record as “No growth occurred”. In the series on B. cinerea [3], the “Antifungal Activity” value is reported as “++++”. Also, in the series on B. cinerea [4] (7 dpi, vs water control), the “reduction of infected (symptomatic) leaf area” value is on record as > 95%. The “disease symptoms (in words)” value was “significant decrease in disease symptoms” in the series on B. cinerea [4] (common bean leaves, 15 µM) and “almost complete annulment” in the series on B. cinerea [4] (common bean leaves, 50 µM). The “reduction of lesion (symptomatic leaf) area” value in the series on B. cinerea [4] (common bean leaves, peptide sprayed at 15 µM, 7 dpi, vs water control) is “about 75%”. In addition, the “increase in the number of asymptomatic berries” value with B. cinerea [5] was “threefold increase”. In the series with B. cinerea conidia (24 h incubation in PDB, 5 × 10^5 mL^−1 conidia), the “germination of conidia (microscopy, Evans blue)” value is reported as “conidia did not germinate”. Further, in the series with B. cinerea conidia (treated 24 h, rinsed with distilled water, plated on PDA), the “fungal growth after rinsing and plating treated conidia on PDA (fungicidal activity)” value is “No fungal growth was observed”. In addition, in the series on F. graminearum, the minimal inhibitory concentration (MIC) is 5 to 15 µM.
For the molecule `CCCCCCCC(=O)NC(C)(C)C(=O)N[C@@H](CCCCN)C(=O)N[C@@H](CCCCN)C(=O)N[C@@H](CC(C)C)C(=O)NC(C)(C)C(=O)NCC(=O)N[C@H](C(=O)N[C@@H](CC(C)C)C(N)=O)[C@@H](C)CC` [Peptide 4c2] (Octanoyl-[Aib]KKL[Aib]GIL-NH2), in the series with B. cinerea [3] (monitored for seven days), the “Growth Delay” value is on record as >7 days. Besides, the “fungal growth / activity” value in the series on B. cinerea [3] (setting [7]) was “inhibiting mycelial growth”. In addition, the “reduction of infected (symptomatic) leaf area” value in the series on B. cinerea [4] (7 dpi, vs water control) was “about 70%”.
`CCCCCCCC(=O)NC(C)(C)C(=O)N[C@@H](CCCCN)C(=O)N[C@@H](CC(C)C)C(=O)NC(C)(C)C(=O)NCC(=O)NCC(=O)N[C@@H](CC(C)C)C(=O)NC(C)(C)C(=O)NCC(=O)N[C@H](C(=O)N[C@H](CO)CC(C)C)[C@@H](C)CC` [Peptide 2] (Octanoyl-[Aib]KL[Aib]GGL[Aib]GI[Leu(ol)]): in the series with B. cinerea [3] (setting [7]), the “Growth Delay” value fell in the range of 1.5 to 2 days and the “fungal growth / activity” value is recorded as “delayed growth”. In the series with B. cinerea [3], the “Antifungal Activity” value is recorded as “++”.
Turning to `CCCCCCCC(=O)NC(C)(C)C(=O)N[C@@H](CCCCN)C(=O)N[C@@H](CC(C)C)C(=O)NC(C)(C)C(=O)NCC(=O)N[C@@H](CCCCN)C(=O)N[C@@H](CC(C)C)C(=O)NC(C)(C)C(=O)NCC(=O)N[C@H](C(=O)N[C@H](CO)CC(C)C)[C@@H](C)CC` [Peptide 7], in the series on B. cinerea [3] (setting [7]), the “Growth Delay” value fell in the range of 3 to 3.5 days and the “fungal growth / activity” value was “delayed growth”. In addition, the “Antifungal Activity” value in the series on B. cinerea [3] was “++”.
Regarding `CCCCCCCC(=O)NC(C)(C)C(=O)N[C@@H](CCCCN)C(=O)N[C@@H](CC(C)C)C(=O)NC(C)(C)C(=O)N[C@@H](CCCCN)C(=O)NCC(=O)N[C@@H](CC(C)C)C(=O)NC(C)(C)C(=O)NCC(=O)N[C@H](C(=O)N[C@H](CO)CC(C)C)[C@@H](C)CC` [Peptide 1] (Octanoyl-[Aib]KL[Aib]KGL[Aib]GI[Leu(ol)]), the stability against pronase entry in [6] is “stable”. Moreover, in the series with B. cinerea [3] (setting [7]), the “Growth Delay” value lay in the range of 0.5 to 1 days and the “fungal growth / activity” value is given as “delayed growth”. For the same molecule, the “Antifungal Activity” value in the series with B. cinerea [3] was “+ ^a”. Moreover, the “time to digestion by trypsin” value with trypsin is given as “less than 15 min”.
With `CCCCCCCC(=O)NC(C)(C)C(=O)NCC(=O)N[C@@H](CC(C)C)C(=O)NC(C)(C)C(=O)N[C@@H](CCCCN)C(=O)NC(C)(C)C(=O)N[C@@H](CC(C)C)C(=O)NC(C)(C)C(=O)NCC(=O)N[C@H](C(=O)N[C@H](CO)CC(C)C)[C@@H](C)CC` [Peptide 6], in the series with B. cinerea [3] (setting [7]), the “Growth Delay” value was 0.5 to 1 days and the “fungal growth / activity” value is given as “delayed growth”. In addition, in the series on B. cinerea [3], the “Antifungal Activity” value is “+”.
For the molecule `CCCCCCCC(=O)NC(C)(C)C(=O)NCC(=O)N[C@@H](CC(C)C)C(=O)NC(C)(C)C(=O)N[C@@H](CCCCN)C(=O)N[C@@H](CCCCN)C(=O)N[C@@H](CC(C)C)C(N)=O` [Peptide 4c1] (Octanoyl-[Aib]GL[Aib]KKL-NH2), the “Growth Delay” value in the series with B. cinerea [3] (monitored for seven days) is reported as >7 days. Besides, in the series on B. cinerea [3] (setting [7]), the “fungal growth / activity” value is “inhibiting mycelial growth”. In addition, in the series on B. cinerea [4] (7 dpi, vs water control), the “reduction of infected (symptomatic) leaf area” value is on record as ~55%.
For `CCCCCCCC(=O)NC(C)(C)C(=O)NCC(=O)N[C@@H](CC(C)C)C(=O)NC(C)(C)C(=O)N[C@@H](CCCCN)C(=O)NCC(=O)N[C@@H](CC(C)C)C(=O)NC(C)(C)C(=O)NCC(=O)N[C@H](C(=O)N[C@H](CO)CC(C)C)[C@@H](C)CC` [Peptide 3], in the series on B. cinerea [3] (setting [7]), the “Growth Delay” value came out at 0 days and the “fungal growth / activity” value is “fungal growth was observed after 12 h”. In addition, in the series on B. cinerea [3], the “Antifungal Activity” value is “–”.
Consider `CCCCCCCC(=O)NC(C)(C)C(=O)N[C@@H](CCCCN)C(=O)N[C@@H](CCCCN)C(=O)N[C@@H](CC(C)C)C(=O)NC(C)(C)C(=O)NCC(=O)N[C@H](C(=O)N[C@H](CO)CC(C)C)[C@@H](C)CC` [Peptide 4c] (Octanoyl-[Aib]KKL[Aib]GI[Leu(ol)]), for which, in the series with B. cinerea [3] (monitored for seven days), the “Growth Delay” value is listed as >7 days. Further, the “fungal growth / activity” value in the series on B. cinerea [3] (setting [7]) is recorded as “inhibiting mycelial growth”. The “reduction of infected (symptomatic) leaf area” value in the series on B. cinerea [4] (7 dpi, vs water control) is listed as ~55%.
Turning to `CCCCCCCC(=O)NC(C)(C)C(=O)NCC(=O)N[C@@H](CC(C)C)C(=O)NC(C)(C)C(=O)NCC(=O)NCC(=O)N[C@@H](CC(C)C)C(=O)NC1(C(=O)NCC(=O)N[C@H](C(=O)N[C@H](CO)CC(C)C)[C@@H](C)CC)CCNCC1` [Peptide 8, [Api^8]-trichogin] (Octanoyl-[Aib]GL[Aib]GGL[Api]GI[Leu(ol)]), the “growth inhibition” value in the series on P. expansum is reported as “completely inhibited the growth”; in the series on B. cinerea [2], “completely inhibited the growth”; with B. sorokiniana, “strong growth inhibition effect”; in the series with F. graminearum, “completely inhibited the growth”. In addition, the “Growth Delay” value with B. cinerea [3] (monitored for seven days) is recorded as >7 days. Moreover, in the series with B. cinerea [3] (setting [7]), the “fungal growth / activity” value was “No growth occurred”. The minimal inhibitory concentration (MIC) against F. graminearum lay in the range of 5 to 15 µM.
In the case of `CCCCCCCC(=O)NC(C)(C)C(=O)NCC(=O)N[C@@H](CC(C)C)C(=O)NC(C)(C)C(=O)NCC(=O)N[C@@H](CCCCN)C(=O)N[C@@H](CC(C)C)C(=O)NC(C)(C)C(=O)NCC(=O)N[C@H](C(=O)N[C@H](CO)CC(C)C)[C@@H](C)CC` [Peptide 5], the “growth inhibition” value in the series with P. expansum was “completely inhibited the growth”; with B. cinerea [2], “completely inhibited the growth”; in the series on B. sorokiniana, “strong growth inhibition effect”; in the series with F. graminearum it was “completely inhibited the growth”. Further, in the series with B. cinerea [3] (monitored for seven days), the “Growth Delay” value is listed as >7 days. The “fungal growth / activity” value with B. cinerea [3] (setting [7]) is “No growth occurred”. Also, the “Antifungal Activity” value with B. cinerea [3] is on record as “++++”. The “reduction of infected (symptomatic) leaf area” value in the series on B. cinerea [4] (7 dpi, vs water control) is > 95%. The “disease symptoms (in words)” value is “significant decrease in disease symptoms” in the series with B. cinerea [4] (common bean leaves, 15 µM) and “almost complete annulment” in the series with B. cinerea [4] (common bean leaves, 50 µM). Also, the minimal inhibitory concentration (MIC) with F. graminearum fell in the range of 5 to 15 µM.
